Laboratory results from US7759101B2, “Ginsenoside glycosidases hydrolyzing ginsenoside sugar moieties and uses thereof” (priority 2000, dated 2010).

System: ginsenoside glycosidases from Streptomyces
Assay: Hydrolysis of Rd with ginsenoside glycosidases from Streptomyces
Type: biochemical, Streptomyces sp. FFCCDL-2 g
Settings: 1% Rd in acetate buffer containing 20% ethanol, 50° C., 20 hours
Method: Streptomyces sp. FFCCDL-2 g (available from Food Fermentation Culture Collection of Dalian Institute of Light Industry) was cultured at 30° C. for 48 hours in a medium containing 1% by weight of ginseng extracts and 3% by weight of wheat bran extracts. Cells were removed by centrifugation, after which (NH4)2SO4 powder was added to 300 ml of the cell-free supernatant to 70% saturation to precipitate the enzymes. The solution was stored at 4° C. overnight and centrifuged to collect the pellets. The pellets were resuspended and the suspension was dialyzed against 0.01M acetate buffer pH 5. Impurities were removed by centrifugation, and 15 ml of crude enzyme solution was obtained.
10 ml of the enzyme solution was allowed to react with 10 ml of 1% Rd in acetate buffer containing 20% ethanol at 50° C. for 20 hours.

CC(C)=CCC[C@](C)(O[C@@H]1O[C@H](CO)[C@@H](O)[C@H](O)[C@H]1O)[C@H]1CC[C@]2(C)[C@@H]1[C@H](O)C[C@@H]1[C@@]3(C)CC[C@H](O[C@@H]4O[C@H](CO)[C@@H](O)[C@H](O)[C@H]4O[C@@H]4O[C@H](CO)[C@@H](O)[C@H](O)[C@H]4O)C(C)(C)[C@@H]3CC[C@]12C [Rd, ginsenoside Rd]
Rd converted to ginsenoside F2: 50%
